# Active and inactive are the calls of the source. The rule behind the calls is not given here.
# What was measured:
# [1] = tested on: Rattus norvegicus; assay: Antagonism of morphine-induced analgesia in rat at 20 mg/kg, sc; type: functional
# [2] = tested on: Mus musculus; assay: Analgesic activity in sc dosed mouse assessed as reduction in phenylalanine-induced writhing; type: functional
# [3] = tested on: Rattus norvegicus; assay: Antagonism of morphine-induced analgesia in sc dosed rat
# [4] = organism: Cavia porcellus; assay: Agonist activity at beta-adrenoceptor in guinea pig tracheal spiral assessed as potency for 75% relaxation of spontaneous contraction relative to soterenol; type: tissue-based; conditions: Trachea
# [5] = tested on: Mus musculus; assay: Reversal of reserpine-induced ptosis in po dosed mouse; type: functional
# [6] = tested on: Mus musculus; assay: Inhibition of reserpine-induced ptosis in po dosed mouse; type: functional
# [7] = tested on: Rattus norvegicus; assay: Analgesic activity in sc dosed rat by tail flick test; type: functional
# [8] = Activity at alpha-adrenoceptor in rat seminal vesicle assessed as potency for producing 50% of that of l-epinephrine-induced contraction relative to soterenol; type: tissue-based
# [9] = organism: Rattus norvegicus; conditions: Tail
# [10] = tested on: Rattus norvegicus; assay: Effect on cAMP level in Sprague-Dawley rat striatum at 0.3 mg/kg, sc after 30 mins; type: functional, organism-based; parameters: dose 0.3 mg/kg
# [11] = tested on: Rattus norvegicus; assay: Effect on cAMP level in Sprague-Dawley rat liver at 0.3 mg/kg, sc after 30 mins; type: functional, organism-based; parameters: dose 0.3 mg/kg
# [12] = tested on: Rattus norvegicus; assay: Effect on cAMP level in Sprague-Dawley rat cortex at 0.3 mg/kg, sc after 30 mins; type: functional, organism-based; parameters: dose 0.3 mg/kg
# [13] = tested on: Rattus norvegicus; assay: Induction of cAMP level in Sprague-Dawley rat hypothalamus at 0.3 mg/kg, sc cotreated with 15 mg/kg, sc morphine 30 mins before sacrifice; type: functional, organism-based
# [14] = tested on: Rattus norvegicus; assay: Induction of cAMP level in Sprague-Dawley rat hypothalamus at 0.3 mg/kg, sc after 30 mins; type: functional, organism-based; parameters: dose 0.3 mg/kg
# [15] = tested on: Rattus norvegicus; assay: Effect on cAMP level in Sprague-Dawley rat heart at 0.3 mg/kg, sc after 30 mins; type: functional, organism-based; parameters: dose 0.3 mg/kg
# [16] = tested on: Rattus norvegicus; assay: Antagonism of morphine-induced analgesia in rat at 1.2 mg/kg, sc; type: functional, organism-based; parameters: dose 1.2 mg/kg
# [17] = tested on: Brain; assay: Drug uptake in Sprague-Dawley rat whole brain at 0.2 mg/kg, ip after 30 mins; type: ADME, organism-based; parameters: dose 0.2 mg/kg, route intraperitoneal; conditions: in vivo, 0.5 h
# [18] = tested on: Hypothalamus; assay: Drug uptake in Sprague-Dawley rat hypothalamus at 0.3 mg/kg, ip after 30 mins; type: ADME, organism-based; parameters: dose 0.3 mg/kg, route intraperitoneal; conditions: in vivo, 0.5 h
# [19] = tested on: Hypothalamus; assay: Drug uptake in Sprague-Dawley rat hypothalamus at 0.2 mg/kg, ip after 30 mins; type: ADME, organism-based; parameters: dose 0.2 mg/kg, route intraperitoneal; conditions: in vivo, 0.5 h
# [20] = organism: Cavia porcellus; assay: Blockade of beta-adrenoceptor in guinea pig tracheal spiral relative to sotalol; type: tissue-based; conditions: Trachea
# [21] = organism: Canis familiaris; assay: Anorexiant activity in dog by free feeding method relative to d-amphetamine; type: functional, Canis lupus familiaris
# [22] = organism: Rattus norvegicus; assay: Anorexiant activity in rat by free feeding method relative to d-amphetamine; type: functional
# [23] = Blockade of alpha-adrenoceptor in rat seminal vesicle relative to phentolamine; type: tissue-based
# [24] = tested on: Mus musculus; assay: Inhibition of reserpine-induced ptosis in po dosed mouse at 25 mg/kg, po; type: functional, organism-based; parameters: dose 25 mg/kg
# [25] = Mus musculus, sc, read-out: ED50
# [26] = Mus musculus, po, read-out: ED50
compound,measurement,setting,value
CS(=O)(=O)Nc1cc(C(=O)CNC2CC2)ccc1O.Cl,Activity,[1],inactive
same,ED50,[2]; [25],> 6 mg/kg
CCN(CC(O)c1ccc(O)c(NS(C)(=O)=O)c1)C1CC1.Cl (stereo unspecified),Activity,[1],inactive
same,ED50,[2]; [25],> 6 mg/kg
CN(C)S(=O)(=O)Nc1cc(C(O)CNC2CC2)ccc1O.Cl (stereo unspecified),ED50,[3],0.72 mg/kg
same,fold change (FC),[4],0.028
same,ED50,[5]; [26],1.3 mg/kg
same,ED50,[2]; [25],1.7 mg/kg
same,ED50,[6]; [26],0.94 mg/kg
same,ED50,[7],50 mg/kg
Cc1cc(C(O)CNC2CC2)cc(NS(C)(=O)=O)c1O.Cl (stereo unspecified),Activity,[1]; route subcutaneous,20.8%
same,fold change (FC),[4],5.8e-05
same,ED50,[5]; [26],0.67 mg/kg
same,fold change (FC),[8],8.7
same,ED50,[6]; [26],0.15 mg/kg
CCOC(CNC1CC1)c1ccc(O)c(NS(C)(=O)=O)c1.Cl (stereo unspecified),Activity,[1],inactive
same,ED50,[5]; [26],9.6 mg/kg
same,ED50,[2]; [25],> 6 mg/kg
same,ED50,[6]; [26],35 mg/kg
Oc1ccc(C(O)CNC2CC2)cc1 (stereo unspecified),Activity,[1],inactive
same,fold change (FC),[4],0.0136
same,ED50,[9],inactive
same,ED50,[2]; [25],5.6 mg/kg
CS(=O)(=O)Nc1cc(C(O)CNC2CC2)ccc1O (stereo in doubt; 44),Activity,[10],inactive
same,Activity,[11],inactive
same,fold change (FC),[4],0.7
same,Activity,[12],inactive
same,Activity,[13],Active
same,Activity,[14],Active
same,Activity,[15],inactive
CS(=O)(=O)Nc1cc(C(O)CNC2CC2)ccc1O (stereo in doubt; 46),fold change (FC),[4],0.0035
same,Activity,[16],inactive
CS(=O)(=O)Nc1ccc(C(O)CNC2CC2)cc1 (stereo unspecified),Activity,[1],inactive
CS(=O)(=O)Nc1cc(C(O)CNC2CC2)ccc1O.Cl (stereo unspecified),Drug uptake,[17],Not Active
same,Drug uptake,[18],Active
same,Drug uptake,[19],Not Active
CS(=O)(=O)Nc1cccc(C(O)CNC2CC2)c1.Cl (stereo unspecified),fold change (FC),[4],< 0.01
same,ED50,[5]; [26],0.8 mg/kg
same,fold change (FC),[20],0.05
same,ED50,[2]; [25],> 6 mg/kg
same,ED50,[6]; [26],1 mg/kg
Cl.Oc1ccc(CCNC2CC2)cc1O,Activity,[1]; route subcutaneous,32.8%
same,ED50,[2]; [25],> 6 mg/kg
CN1CC[C@]23c4c5ccc(O)c4O[C@H]2[C@@H](O)C=C[C@H]3[C@H]1C5.CN1CC[C@]23c4c5ccc(O)c4O[C@H]2[C@@H](O)C=C[C@H]3[C@H]1C5.O=S(=O)(O)O,ED50,[2]; [25],0.62 mg/kg
same,ED50,[7],1.9 mg/kg
CS(=O)(=O)Nc1cc(C(O)CNC2(Cc3ccccc3)CC2)ccc1O.Cl (stereo unspecified),ED50,[3],4.7 mg/kg
same,fold change (FC),[4],0.14
same,ED50,[5]; [26],0.32 mg/kg
same,ED50,[6]; [26],0.15 mg/kg
C[C@H](NC1CC1)[C@H](O)c1ccc(O)c(NS(C)(=O)=O)c1.Cl (relative stereo),Activity,[1],inactive
same,fold change (FC),[4],0.11
same,ED50,[5]; [26],0.76 mg/kg
same,ED50,[6]; [26],0.51 mg/kg
CC(C)NCC(O)c1ccc(O)c(NS(C)(=O)=O)c1 (stereo unspecified),Activity,[1],inactive
same,ED50,[9],inactive
CS(=O)(=O)Nc1cc(O)cc(C(O)CNC2CC2)c1.Cl (stereo unspecified),Activity,[4],inactive
same,Activity,[8],Not Active
"CS(=O)(=O)Nc1cc(C(O)CNC2CC2)ccc1O.Cl (single isomer, unassigned; (-))",ED50,[5],0.23 mg/kg
same,fold change (FC),[8],108
same,ED50,[2],0.66 mg/kg
same,ED50,[6],0.175 mg/kg
CN(C)CCCN1c2ccccc2CCc2ccccc21.Cl [IMIPRAMINE HYDROCHLORIDE],ED50,[5]; [26],> 320 mg/kg
same,ED50,[6]; [26],4.97 mg/kg
CS(=O)(=O)Nc1cc(C(O)CNC2CCC2)ccc1O.Cl (stereo unspecified),fold change (FC),[4],0.36
same,ED50,[5]; [26],24 mg/kg
same,ED50,[2]; [25],> 6 mg/kg
same,ED50,[6]; [26],20 mg/kg
CS(=O)(=O)Nc1cc(C(O)CNC2CC2)ccc1O.Cl (stereo in doubt; 44),ED50,[3],0.275 mg/kg
same,fold change (FC),[21],22
same,fold change (FC),[22],22
same,ED50,[5]; [26],0.255 mg/kg
same,fold change (FC),[8],68.8
same,ED50,[2],0.56 mg/kg
same,ED50,[6],0.265 mg/kg
same,ED50,[7],5 mg/kg
C[C@H](NC1CC1)[C@H](O)c1cccc(NS(C)(=O)=O)c1.Cl (relative stereo),fold change (FC),[20],0.1
same,ED50,[2]; [25],> 6 mg/kg
CC[C@H](NC1CC1)[C@H](O)c1ccc(O)c(NS(C)(=O)=O)c1.Cl (relative stereo),Activity,[1],inactive
same,fold change (FC),[4],0.23
same,ED50,[5]; [26],8.9 mg/kg
same,fold change (FC),[23],0.000045
same,fold change (FC),[8],0
same,ED50,[2]; [25],> 6 mg/kg
same,ED50,[6]; [26],20 mg/kg
CS(=O)(=O)Nc1cc(CCNC2CC2)ccc1O.Cl,ED50,[3],0.21 mg/kg
same,fold change (FC),[21],5.5
same,fold change (FC),[4],0.002
same,fold change (FC),[22],5.5
same,ED50,[5]; [26],1.5 mg/kg
same,ED50,[2]; [25],0.62 mg/kg
same,ED50,[6]; [26],3.6 mg/kg
same,ED50,[7],2.77 mg/kg
CC(C)NCC(O)c1ccc(O)c(NS(C)(=O)=O)c1.Cl (stereo unspecified) [SOTERENOL HYDROCHLORIDE],Drug uptake,[17],Not Active
same,Drug uptake,[18],Active
same,Drug uptake,[19],Not Active
C=CCN1CC[C@]23c4c5ccc(O)c4O[C@H]2[C@@H](O)C=C[C@H]3[C@H]1C5.Cl [NALORPHINE HYDROCHLORIDE],ED50,[3],0.37 mg/kg
same,ED50,[9],inactive
same,ED50,[2]; [25],2.5 mg/kg
CC(C)(Cc1ccccc1)NCC(O)c1ccc(O)c(NS(C)(=O)=O)c1.Cl (stereo unspecified) [ZINTEROL HYDROCHLORIDE],ED50,[3],18.8 mg/kg
same,fold change (FC),[21],11
same,fold change (FC),[4],7.9
same,fold change (FC),[22],11
same,ED50,[9],inactive
same,fold change (FC),[23],0.1
same,inhibition,[24],inactive
same,fold change (FC),[8],0
CS(=O)(=O)Nc1cc(C(O)CNC2CC2)cc(Cl)c1O.Cl (stereo unspecified),Activity,[1]; route subcutaneous,20.8%
same,fold change (FC),[4],0.048
same,ED50,[5]; [26],0.082 mg/kg
same,fold change (FC),[8],4.9
same,ED50,[2]; [25],> 6 mg/kg
same,ED50,[6]; [26],0.072 mg/kg
CC1(NCC(O)c2ccc(O)c(NS(C)(=O)=O)c2)CC1.Cl (stereo unspecified),ED50,[3],1 mg/kg
same,fold change (FC),[4],2.33
same,ED50,[5]; [26],1.1 mg/kg
same,ED50,[6]; [26],0.52 mg/kg
CC(C)NCC(O)c1ccc(O)c(NS(C)(=O)=O)c1 (stereo unspecified) [SOTERENOL],ED50,[5]; [26],16.5 mg/kg
same,ED50,[2]; [25],> 40 mg/kg
same,ED50,[6]; [26],7.6 mg/kg
"CS(=O)(=O)Nc1cc(C(O)CNC2CC2)ccc1O (single isomer, unassigned; (-))",fold change (FC),[4],1.9
Oc1ccc(C(O)CNC2CC2)cc1Cl (stereo unspecified),Activity,[1]; route subcutaneous,14.5%
same,ED50,[2]; [25],> 6 mg/kg
CC(N)Cc1ccccc1.O=S(=O)(O)O (racemic) [AMPHETAMINE SULFATE],ED50,[5]; [26],1.94 mg/kg
same,ED50,[6]; [26],0.67 mg/kg
CCC(Cc1ccc(O)c(NS(C)(=O)=O)c1)NC1CC1.Cl (stereo unspecified),fold change (FC),[4],0.0013
same,ED50,[2]; [25],> 6 mg/kg
CC(C)(Cc1ccccc1)NCCc1ccc(O)c(NS(C)(=O)=O)c1,Activity,[1],inactive
same,fold change (FC),[4],0.31
CS(=O)(=O)Nc1cc(C(O)CNC2CC2)ccc1O.Cl (stereo in doubt; 46),fold change (FC),[8],0
same,ED50,[2],>50 mg/kg
same,ED50,[6],31.3 mg/kg

# — ChEMBL document CHEMBL3272017, “Adrenergic sulfonanilides. 4. Centrally active beta-adrenergic agonists” (J Med Chem, 1976)
